# “Also recorded” adds a separate entry of the source.
# Key:
# [1] = Solubility remark; format: physicochemical
# [2] = Acute toxicity in the mouse; format: in vivo; settings: in vivo, within 14 days
# Method: (§1) The acute toxicity was determined in the mouse and in the rat. Determined was the LD50, i.e. the dose after administration of which 50% of the animals died within 14 days, or it was determined how many of the 10 treated animals died within the period of observation.
# [3] = system: mouse; assay: Acute toxicity in the mouse; format: in vivo; settings: 2000 mg/kg
# Method: as §1
# [4] = Acute toxicity in the rat; format: in vivo; settings: in vivo, ip, within 14 days
# Method: as §1
# [5] = system: rat; assay: Acute toxicity in the rat; format: in vivo
# Method: as §1
# [6] = system: skin of guinea pigs; assay: Skin compatibility test on guinea pigs; format: in vivo, guinea pig (Perbright White strain); settings: for Sum of the reactions divided by the number of animals: score 0 no irritation to 3 very strong erythema
# Method: Guinea pigs of the Perbright White strain, with a body weight of about 350 gm, were fed with standard guinea pig feed (Altromin 3022) and water ad lib.
# During the test, the animals were kept in single cages. The test substances, which were dissolved in a well compatible solvent, were applied to the skin of the animals (diameter of the test area 3.5 cm) daily for 3 weeks, from Monday to Friday. The animals were shaved each Monday, Wednesday and Friday in the early morning, the treatment with the test substances was performed in the early afternoon. Immediately before administration of the substance, the skin reaction was tested. The evaluation was carried out visually, and erythema, edema, and mycosis of the skin were considered.
# The following evaluation was made:
# 2: strong erythema with beginning edema
# 3: very strong erythema with edema or beginning necrosis.
# The numerical sum of the reactions was used for the total evaluation of a group of animals.
# [7] = system: guinea pigs; assay: Sensitizing activity on guinea pigs; format: in vivo, guinea pig (Perbright White strain)
# Method: The sensitizing activity was tested 2 weeks after the skin compatibility test with 1:10 to 1:50 of the originally used concentrations behind the ears.
# [8] = system: skin (forearms of volunteer human test subjects); assay: Orienting skin compatibility in humans (ointments on forearm); format: in vivo; settings: for discoloration of the skin / skin irritation: 0.44% ointment, 16 hours, doubled to 0.88% after 3 days if no reaction
# Method: Ointments, each containing individually 0.44% of compounds […] and K were applied to the forearms of volunteer human test subjects, covered with bandage gauze and allowed to remain on the skin for 16 hours. After 16 hours the ointments were washed off with soap solution, and the skin irritation and discoloration, if any, were evaluated visually and photographed. Then, the test ointments were again administered and allowed to remain on the skin until the next day. Again, the reactions were evaluated and a new treatment was started.
# [9] = system: skin; assay: Skin compatibility under occlusion, method of Mustakallio; format: in vivo; settings: for concentrations producing discoloration and skin irritations: white vaseline
# Method: In a further test, according to the method of Mustakallio, compound A was applied at concentrations of 1, 2, 4, 8, 16, 32 mmols in white vaseline and allowed to remain on the skin for 4 hours under occlusion. Compounds C and K, however, were applied at concentrations of 4, 8, 16, 32, 64, 128 mmols, also in white vaseline, and allowed to remain on the skin for 16 hours under occlusion. […] This means that the novel compounds are more compatible by a factor of at least 64.
# [10] = Penetration and metabolization in the skin in vitro; format: in vitro ADME, pig; settings: thin-layer chromatography; for penetration into the layers of the skin: same carriers
# [11] = Stability under light irradiation; format: physicochemical; settings: for decomposition under light: 30 minutes, 400 W high-pressure mercury vapor lamp, in toluene or xylene
# Method: Compound C and dithranol (A) in solution (toluene or xylene) were exposed for 30 minutes to a 400 W high-pressure mercury vapor lamp (Type HPM 12, Phillips), where the spectrum of light emission was changed by adding heavy metal salts.
# [12] = system: psoriasis; settings: literature or prior use; cited from earlier work
# [13] = system: skin; settings: literature or prior use; listed as dithranol; cited from earlier work
# [14] = prior use; cited from earlier work
# [15] = target: glucose-6-phosphate-dihydrogenase; assay: Inhibition of glucose-6-phosphate-dihydrogenase after 120 minutes incubation; format: biochemical; settings: 37° C., pH 7.6, REED and MUENCH
# Method: The inhibiting effect upon enzymes was determined by measurement of the inhibition of glucose-6-phosphate-dihydrogenase.
# The following equilibrium was observed: [drawing 5] (NADP-nicotinamide-adenine-dinucleotide-phosphate). The rate of formation of NADPH is a measure of the enzyme activity; it can be measured by means of the increase in extinction at […] per unit of time.
# 0.025 ml of glucose-6-phosphate-dihydrogenase were diluted to 10 ml with distilled water (Solution I). 100 mg of nicotinamide-adenine-dinucleotide-phosphate were dissolved in 13 ml of distilled water (Solution II). 47.2 mg of glucose-6-phosphate were dissolved in another 10 ml of distilled water (Solution III). Besides this, a buffer solution (Solution IV) was prepared as follows:
# 0.28 gm of triethanolamine hydrochloride and 1.461 gm of ethylene-diamine tetraacetic acid disodium salt were dissolved in 1 liter of distilled water, and the solution was adjusted to pH 7.6 with sodium hydroxide. The substance to be tested was dissolved in dimethyl formamide or ethanol (Solution V). Tested end-concentrations: 25, 12.5, 6.25, 3.125, 1.56 and 0.78 μg/ml.
# A mixture of 0.1 ml of Solution I, 0.1 ml of Solution II, 2.67 ml of Solution IV and 0.03 ml of Solution V was kept at 37° C. for 120 minutes. After addition of 0.1 ml of Solution III and thorough mixing, the change in extinction was measured photometrically at 366 nm over 3 minutes. The inhibition values were calculated from the average values of 3 measurements (as change of extinction per minute), compared to controls to which the pure solvent was added as inhibitor solution. The ED50 was calculated according to the method of REED and MUENCH from the inhibiting values of the different concentrations. The following table contains the values thus determined: […]
# [16] = Natural color of the substance (UV-absorption, FIG. 1); format: physicochemical; settings: shortwave portion of visible light, beginning at 380 nm
# Source text: Topically administrable substances which are colored are undesirable for cosmetic reasons and also because the lingerie may become soiled. […] This is also expressed by the optic impression of the preparations. […] This is a further advantage compared with dithranol.
# [17] = system: guinea pig; assay: Photo-sensitization in vivo on the guinea pig; settings: 0.01% alcoholic solution, 3 weeks, 125 W mercury high-pressure lamp 10 minutes
# Method: Since some halogenated aromatic substances have a photo-sensitizing activity, the photo-sensitization of compound C was also tested in vivo on the guinea pig.
# Guinea pigs were treated for 3 weeks on 5 week-days with a 0.01% alcoholic solution of compound C. After 30 minutes each animal was exposed for 10 minutes to a 125 W mercury high-pressure lamp (ultra violet sun lamp). The irradiation was carried out in such a way that no UV-B erythema appeared.
smiles,measurement,setting,value
CC(C)(C)c1cc(Br)c(O)c2c1Cc1c(Br)cc(Br)c(O)c1C2=O,solubility,[1],inadequate solubility
"O=C1c2c(O)cccc2Cc2cccc(O)c21 [Compound A, 1,8-Dihydroxy-9-(10H)anthracenone]",LD50 at 336 h,[2]; ip,2.42 mg/kg
same,LD50 at 336 h,[2]; sc.,2.22 mg/kg
same,Number of dead animals,[3]; p.o.,2/10
same,LD50 at 336 h,[4],5.19 mg/kg
same,Number of dead animals,"[5]; p.o., 2000 mg/kg",1/10
same,Number of dead animals,"[5]; sc., 1000 mg/kg",2/10
same,Sum of the reactions divided by the number of animals,"[6]; 0.015%, end of 1st week",0.66
same,Sum of the reactions divided by the number of animals,"[6]; 0.015%, end of 2nd week",0.33
same,Sum of the reactions divided by the number of animals,"[6]; 0.015%, end of 3rd week",0.33
same,Sum of the reactions divided by the number of animals,"[6]; 0.03%, end of 1st week",1.3
same,Sum of the reactions divided by the number of animals,"[6]; 0.03%, end of 2nd week",2.16
same,Sum of the reactions divided by the number of animals,"[6]; 0.03%, end of 3rd week",2.25
same,sensitized animals,"[7]; 0.03%, tested 2 weeks after skin compatibility test",3 out of 12
same,discoloration of the skin,[8],brownish-violet discoloration after only the second application
same,skin irritation,[8],strong skin irritation with erythema
same,later changes of the treated skin area,[8]; ointment test,peeled after about one week
same,concentrations producing discoloration and skin irritations,[9]; 4 hours of occlusion,≥ 2 mmols
same,concentrations producing discoloration and skin irritations,[9]; 16 hours of occlusion,≥ 1 mmols
same,penetration into the layers of the skin,[10],penetrate to an approximately equal extent
same,metabolization in the skin,[10],metabolized in a similar manner
same,decomposition under light,[11],nearly completely decomposed
same,antipsoriatic activity,[12],reliable activity
same,skin irritation and/or discoloration,[13],"strong, irreversible discoloration of skin and lingerie; also recorded: strong skin-irritating activity"
same,systemic side-effects,[14],lack of systemic side-effects
"O=C1c2c(O)ccc(Cl)c2Cc2c(Cl)ccc(O)c21 [Compound C, 4,5-Dichloro-1,8-dihydroxy-9-(10H)anthracenone]","ED50, inhibition of incubation after 120 minutes",[15],4.63 µg/mL
same,Number of dead animals,[3]; i.p.,1/10
same,Number of dead animals,[3]; p.o.,0/10
same,Number of dead animals,[3]; sc.,6/10
same,Number of dead animals,"[5]; i.p., 2000 mg/kg",0/10
same,Number of dead animals,"[5]; p.o., 2000 mg/kg",0/10
same,Number of dead animals,"[5]; sc., 2000 mg/kg",0/10
same,Sum of the reactions divided by the number of animals,"[6]; 0.03%, end of 1st week",0
same,Sum of the reactions divided by the number of animals,"[6]; 0.03%, end of 2nd week",0
same,Sum of the reactions divided by the number of animals,"[6]; 0.03%, end of 3rd week",0.04
same,Sum of the reactions divided by the number of animals,"[6]; 0.045%, end of 1st week",0.166
same,Sum of the reactions divided by the number of animals,"[6]; 0.045%, end of 2nd week",0.66
same,Sum of the reactions divided by the number of animals,"[6]; 0.045%, end of 3rd week",0.41
same,skin compatibility compared with compound A,[6]; Table 3,considerably more skin-compatible than compound A
same,sensitization,"[7]; 1:10 to 1:50 of the original concentrations, behind the ears",no sensitization
same,discoloration of the skin,[8],no skin irritation or discoloration of the skin
same,skin irritation,[8],no skin irritation
same,skin irritations or discolorations,"[9]; 4 to 128 mmols in white vaseline, after 4 and after 16 hours of occlusion",no skin irritations or discolorations could be observed
same,penetration into the layers of the skin,[10],penetrate to an approximately equal extent
same,metabolization in the skin,[10],metabolized in a similar manner
same,UV-absorption / yellow color,[16],significantly less UV-absorption
same,decomposition under light,[11],no decomposition could be determined
same,chlorination of toluene (radical formation),"[11]; gas-chromatographic, sensitivity 0.0001%",no chlorination of toluene could be found
same,photo-sensitizing activity,[17],No photo-sensitizing activity could be determined

# Reference: US4327114A, “Substituted 1,8-dihydroxy-9-(10H)anthracenones” (Boehringer Ingelheim GmbH, priority 1980, dated 1982)
